# Measurements from US7129246B2, “N-adamantlmethyl derivatives and intermediates as pharmaceutical compositions and processes for their preparation” (AstraZeneca AB, priority 2001, dated 2006).
# Counter-ions that a name gives are not always drawn.
# Experiments:
# P2X7 receptor = target: T1, P2X7 receptor (Homo sapiens, UniProt Q99572); assay: P2X7 receptor antagonist test: bbATP-induced ethidium bromide fluorescence in THP-1 cells; assay type: cell-based; conditions: bbATP agonist, 37° C. for one hour, read-out: pIC50 (negative logarithm of the concentration of test compound necessary to reduce the bbATP agonist activity by 50%) (converted)
# T1 construct: 200 μl of a suspension of THP-1 cells; endogenous in cells; host or cells: THP-1 cells
# T1 sequence (Q99572 1-595): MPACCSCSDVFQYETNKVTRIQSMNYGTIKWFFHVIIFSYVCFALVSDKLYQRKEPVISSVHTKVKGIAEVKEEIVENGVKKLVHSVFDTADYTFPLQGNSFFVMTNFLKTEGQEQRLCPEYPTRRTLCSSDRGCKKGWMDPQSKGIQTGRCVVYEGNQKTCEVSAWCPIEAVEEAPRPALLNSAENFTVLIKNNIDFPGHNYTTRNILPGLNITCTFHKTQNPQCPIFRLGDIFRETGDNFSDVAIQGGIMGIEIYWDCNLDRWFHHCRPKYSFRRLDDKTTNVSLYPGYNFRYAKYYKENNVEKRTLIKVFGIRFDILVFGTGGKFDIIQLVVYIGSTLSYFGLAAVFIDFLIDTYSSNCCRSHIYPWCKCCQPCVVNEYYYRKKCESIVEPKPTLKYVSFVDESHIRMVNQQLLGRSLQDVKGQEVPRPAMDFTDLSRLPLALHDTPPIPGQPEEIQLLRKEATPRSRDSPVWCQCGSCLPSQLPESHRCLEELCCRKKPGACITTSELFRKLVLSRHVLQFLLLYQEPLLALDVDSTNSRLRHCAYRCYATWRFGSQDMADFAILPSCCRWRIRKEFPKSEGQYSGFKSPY
# Text: Certain compounds such as benzoylbenzoyl adenosine triphosphate (bbATP) are known to be agonists of the P2X7 receptor, effecting the formation of pores in the plasma membrane (Drug Development Research (1996), 37(3) p. 126). Consequently, when the receptor is activated using bbATP in the presence of ethidium bromide (a fluorescent DNA probe), an increase in the fluorescence of intracellular DNA-bound ethidium bromide is observed. The increase in fluorescence can be used as a measure of P2X7 receptor activation and therefore to quantify the effect of a compound on the P2X7 receptor.
# In this manner, each of the title compounds of the Examples was tested for antagonist activity at the P2X7 receptor. Thus, the test was performed in 96-well flat bottomed microtitre plates, the wells being filled with 250 μl of test solution comprising 200 μl of a suspension of THP-1 cells (2.5×10^6 cells/ml) containing 10^−4M ethidium bromide, 25 μl of a high potassium buffer solution containing 10^−5M bbATP, and 25 μl of the high potassium buffer solution containing 3×10^−5M test compound. The plate was covered with a plastics sheet and incubated at 37° C. for one hour. The plate was then read in a Perkin-Elmer fluorescent plate reader, excitation 520 nm, emission 595 nm, slit widths: Ex 15 nm, Em 20 nm. […]
melting point,IC50 (P2X7 receptor),SMILES
150 °C (dec.),,"NCCCc1cc(C(=O)NCC23CC4CC(CC(C4)C2)C3)c(Cl)cn1 (as salt: hydrochloride) [Example 6, N-(1-Adamantylmethyl)-2-(3-aminopropyl)-5-chloroisonicotinamide hydrochloride]"
206 to 208 °C (dec.),,"CCNCCCc1cc(C(=O)NCC23CC4CC(CC(C4)C2)C3)c(Cl)cn1 (as salt: hydrochloride) [Example 7, N-(1-Adamantylmethyl)-5-chloro-2-[3-(ethylamino)propyl]isonicotinamide hydrochloride]"
205 to 208 °C,,"C[C@H](CO)NCCCc1cc(C(=O)NCC23CC4CC(CC(C4)C2)C3)c(Cl)cn1 (as salt: hydrochloride) [Example 9, N-(1-Adamantylmethyl)-5-chloro-2-(3-{[(1R)-2-hydroxy-1-methylethyl]amino}propyl)isonicotinamide, dihydrochloride]"
205 to 208 °C,,"C[C@@H](CO)NCCCc1cc(C(=O)NCC23CC4CC(CC(C4)C2)C3)c(Cl)cn1 (as salt: hydrochloride) [Example 10, N-(1-Adamantylmethyl)-5-chloro-2-(3-{[(1S)-2-hydroxy-1-methylethyl]amino}propyl)isonicotinamide, dihydrochloride]"
204 to 205 °C (dec.),,"O=C(NCC12CC3CC(CC(C3)C1)C2)c1cc(CCCNCCO)ncc1Cl (as salt: hydrochloride) [Example 11, N-(1-Adamantylmethyl)5-chloro-2-{3-[(2-hydroxyethyl)amino]propyl}-isonicotinamide hydrochloride]"
217 to 219 °C,,"O=C(NCC12CC3CC(CC(C3)C1)C2)c1cc(CCCNC[C@@H](O)CO)ncc1Cl (as salt: hydrochloride) [Example 16, N-(1-Adamantylmethyl)-5-chloro-2-(3-{[(2R)-2,3-dihydroxypropyl]amino}propyl)isonicotinamide, dihydrochloride]"
236 to 238 °C,,"CC(C)(O)CNCCCc1cc(C(=O)NCC23CC4CC(CC(C4)C2)C3)c(Cl)cn1 (as salt: hydrochloride) [Example 19, N-(1-Adamantylmethyl)-5-chloro-2-{3-[(2-hydroxy-2-methylpropyl)amino]propyl}isonicotinamide dihydrochloride]"
216 to 219 °C,,"CNCCNCCCc1cc(C(=O)NCC23CC4CC(CC(C4)C2)C3)c(Cl)cn1 (as salt: hydrochloride) [Example 21, N-(1-Adamantylmethyl)-5-chloro-2-(3-{[2-(methylamino)ethyl]amino}propyl)isonicotinamide dihydrochloride]"
231 to 233 °C,,"O=C(NCC12CC3CC(CC(C3)C1)C2)c1cc(CCCNCCNCCO)ncc1Cl (as salt: hydrochloride) [Example 23, N-(1-Adamantylmethyl)-5-chloro-2-[3-({2-[(2-hydroxyethyl)amino]ethyl}amino)propyl]isonicotinamide dihydrochloride]"
201 to 203 °C,,"O=C(NCC12CC3CC(CC(C3)C1)C2)c1cc(CCCNC(CO)CO)ncc1Cl (as salt: hydrochloride) [Example 25, N-(1-Adamantylmethyl)-5-chloro-2-(3-{[2-hydroxy-1-(hydroxymethyl)ethyl]amino}propyl)isonicotinamide dihydrochloride]"
206 to 208 °C,,"CN(CCO)CCCc1cc(C(=O)NCC23CC4CC(CC(C4)C2)C3)c(Cl)cn1 (as salt: hydrochloride) [Example 26, N-(1-Adamantylmethyl)-5chloro-2-{3-[(2-hydroxyethyl)(methyl)amino]propyl}isonicotinamide dihydrochloride]"
224 to 226 °C,,"C[C@@H](O)CNCCCc1cc(C(=O)NCC23CC4CC(CC(C4)C2)C3)c(Cl)cn1 (as salt: hydrochloride) [Example 28, N-(1-Adamantylmethyl)-5-chloro-2-(3-{[(2R)-2-hydroxypropyl]amino}propyl)isonicotinamide, dihydrochloride]"
285 to 287 °C,,"CNCCCNCc1cc(C(=O)NCC23CC4CC(CC(C4)C2)C3)c(Cl)cn1 (as salt: hydrochloride) [Example 29, N-(1-Adamantylmethyl)-5chloro-2-({[3-(methylamino)propyl]amino}methyl)isonicotinamide dihydrochloride]"
289 to 292 °C,,"O=C(NCC12CC3CC(CC(C3)C1)C2)c1cc(CNCCNCCO)ncc1Cl (as salt: hydrochloride) [Example 30, N-(1-Adamantylmethyl)-5-chloro-2-[({2-[(2-hydroxyethyl)amino]ethyl}amino)methyl]isonicotinamide dihydrochloride]"
259 to 262 °C,,"CNCCNCc1cc(C(=O)NCC23CC4CC(CC(C4)C2)C3)c(Cl)cn1 (as salt: hydrochloride) [Example 31, N-(1-Adamantylmethyl)-5-chloro-2-({[2-(methylamino)ethyl]amino}methyl)isonicotinamide dihydrochloride]"
242 to 244 °C,,"O=C(NCC12CC3CC(CC(C3)C1)C2)c1cc(CCNCCO)ncc1Cl (as salt: hydrochloride) [Example 32, N-(1-Adamantylmethyl)-5-chloro-2-{3-[(2-hydroxyethyl)amino]ethyl}isonicotinamide dihydrochloride]"
240 to 242 °C,,"O=C(NCC12CC3CC(CC(C3)C1)C2)c1cc(CCNCCCO)ncc1Cl (as salt: hydrochloride) [Example 33, N-(1-Adamantylmethyl)-5-chloro-2-{3-[(3-hydroxypropyl)amino]ethyl}isonicotinamide dihydrochloride]"
210 to 212 °C,,"CNCCCc1cc(C(=O)NCC23CC4CC(CC(C4)C2)C3)c(Cl)cn1 (as salt: hydrochloride) [Example 34, N-(1-Adamantylmethyl)-5-chloro2-[3-(methylamino)propyl]isonicotinamide hydrochloride]"
210 to 212 °C,,"CNCCCNCCCc1cc(C(=O)NCC23CC4CC(CC(C4)C2)C3)c(Cl)cn1 (as salt: trifluoroacetate) [Example 22, N-(1-Adamantylmethyl)-5-chloro-2-(3-{[3-(methylamino)propyl]amino}propyl)isonicotinamide bis(trifluoroacetate)]"
84 to 85 °C,,"O=C(NCC12CC3CC(CC(C3)C1)C2)c1cc(CCCNCCCO)ncc1Cl [Example 1, N-(1-Adamantylmethyl)-5-chloro-2-{3-[(3-hydroxypropyl)-amino]propyl}isonicotinamide]"
105 to 107 °C,,"O=C(NCC12CC3CC(CC(C3)C1)C2)c1cc(CCCNCCCO)cnc1Cl [Example 3, N-(1-Adamantylmethyl)-2-chloro-5-{3-[(3-hydroxypropyl)amino]propyl}nicotinamide]"
,79.4 nM,"O=C(NCC12CC3CC(CC(C3)C1)C2)c1cc(OCCNCCCO)ncc1Cl [Example 12, N-(1-Adamantylmethyl)-5-chloro-2-{2-[(3-hydroxypropyl)amino]ethoxy}isonicotinamide, hydrochloride]"
,15.8 nM,"CN(CCO)CCCc1cc(C(=O)NCC23CC4CC(CC(C4)C2)C3)c(Cl)cn1 [Example 26, N-(1-Adamantylmethyl)-5chloro-2-{3-[(2-hydroxyethyl)(methyl)amino]propyl}isonicotinamide dihydrochloride]"
